The values below come from patent US8399520B2, “Selective estrogen receptor modulator” (Eisai R&D Management Co., Ltd., priority 2002, dated 2013).

pKi: −log10 of the molar value.

The target in the assay is T1, estrogen receptor derived from bovine uterus (Bos taurus, UniProt P49884).
T1 construct: estrogen receptor derived from bovine uterus was diluted with the assay buffer solution so that 10 to 20 μg total protein was present; from tissue; host or cells: bovine uterus
T1 sequence (P49884 1-596): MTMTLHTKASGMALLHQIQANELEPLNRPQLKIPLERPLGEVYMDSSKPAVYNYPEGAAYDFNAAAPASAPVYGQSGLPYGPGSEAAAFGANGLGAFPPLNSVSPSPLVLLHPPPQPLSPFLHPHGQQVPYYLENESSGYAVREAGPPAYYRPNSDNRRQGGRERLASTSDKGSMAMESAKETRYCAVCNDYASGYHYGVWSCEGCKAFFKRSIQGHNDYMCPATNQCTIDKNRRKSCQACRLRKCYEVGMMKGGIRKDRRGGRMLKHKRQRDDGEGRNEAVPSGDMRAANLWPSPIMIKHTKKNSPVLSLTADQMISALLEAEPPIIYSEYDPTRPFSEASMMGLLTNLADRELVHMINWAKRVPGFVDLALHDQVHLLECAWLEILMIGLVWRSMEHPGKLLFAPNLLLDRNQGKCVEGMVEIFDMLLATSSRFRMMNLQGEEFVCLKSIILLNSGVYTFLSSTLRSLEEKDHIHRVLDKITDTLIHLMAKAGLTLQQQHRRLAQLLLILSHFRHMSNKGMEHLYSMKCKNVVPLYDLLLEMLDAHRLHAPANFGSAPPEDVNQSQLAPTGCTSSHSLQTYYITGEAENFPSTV
In words: In vitro estrogen receptor binding assay. The conditions noted are these: read-out: Estrogen receptor binding affinity: Ki. The method, then: The binding affinity of the compound according to the present invention to estrogen receptor was measured using an in vitro estrogen receptor binding assay. The binding affinity measures the ability of the compound according to the present invention to remove [^3H]-estradiol from estrogen receptor derived from bovine uterus. The following materials were used in this assay: (1) the assay buffer solution was 20 mM Tris/HCl (pH 7.5) containing 1 mM dithiothreitol (DTT), 1 mM EDTA and 10% glycerol; (2) radioactive ligand was [^3H]-estradiol purchased from Amersham Life Science; (3) the cold ligand was diethylstilbestrol purchased from sigma (Sigma); and (4) the estrogen receptor was derived from bovine uterus. The compound to be tested was prepared as a 10% DMSO solution. [^3H]-estradiol was dissolved in the assay buffer solution so as to obtain a final concentration of 1 nM. […] Each plate contains total binding, non-specific binding and the binding which were not inhibited by various concentrations of the compound. The plate was incubated for 1 hour at room temperature. […] These mixtures were centrifuged, and the supernatant thereof was evaluated for its radioactivity using a liquid scintillation counter. Specific binding was calculated by subtracting non-specific binding dpm (counts remaining in the supernatant obtained by centrifugal separation of a reaction mixture containing estrogen receptor derived from bovine uterus, radioactive ligand and excess cold ligand) from the total binding dpm (counts remaining in the supernatant obtained by centrifugal separation of a reaction mixture containing estrogen receptor derived from bovine uterus and radioactive ligand only). The effectiveness of the compound was evaluated by Ki. […] C is the concentration of [^3H]-estradiol in the reaction mixture, and Kd is the [^3H]-estradiol dissociation constant. The Kd was determined by Scatchard analysis. That is to say, various concentrations of [^3H]-estradiol were used to measure the concentration of specifically bound [^3H]-estradiol, which served as the horizontal axis, the value which was obtained by dividing the concentration of specifically bound [^3H]-estradiol by the concentration [^3H]-estradiol not bound to the receptor served as the vertical axis to produce a plot, and the negative value of the inverse of the slope of the resulting straight line was used as Kd.
Take `CCN(Cc1ccc(OCCN2CCCCC2)c(F)c1)c1cc(O)ccc1[C@@H]1CCc2cc(O)ccc2C1` [188 (R), (R)-6-{2-{ethyl-[3-fluoro-4-(2-piperidin-1-ylethoxy)benzyl]amino}-4-hydroxyphenyl}-5,6,7,8-tetrahydronaphthalen-2-ol]: the pKi (usually the negative decadic logarithm of the Ki, by convention in mol/L) is 8.92. `O=C(c1ccc(OCCN2CCCCC2)cc1)c1cc(O)ccc1-c1ccc2cc(O)ccc2c1` [Example 8, [5-Hydroxy-2-(6-hydroxynaphthalen-2-yl)phenyl][4-(2-piperidin-1-yl-ethoxy)phenyl]methanone]: the pKi was 9.19. The figure for `O=c1cccc(C2=Cc3ccc(O)cc3CCC2)n1Cc1ccc(OCCN2CCCCCC2)cc1` [Example 15, 1-[4-(2-Azepan-1-ylethoxy)benzyl]-6-(2-hydroxy-8,9-dihydro-7H-benzocyclohepten-6-yl)-1H-pyridin-2-one] is 7.22; for `Oc1ccc2c(c1)CCN(c1cc(O)ccc1Cc1ccc(OCCN3CCCCC3)cc1)CC2` [Example 21, 3-{5-Hydroxy-2-[4-(2-piperidin-1-ylethoxy)benzyl]phenyl}-2,3,4,5-tetrahydro-1H-benz[d]azepin-7-ol] it is 7.33. Take `CCN(CC)c1cc(O)ccc1C1CCc2cc(O)ccc2C1` (stereo not drawn) [Example 44, 6-(2-Diethylamino-4-hydroxyphenyl)-5,6,7,8-tetrahydronaphthalen-2-ol]: the negative logarithm of the Ki (pKi) was 7.68. The figure for `CCN(Cc1ccccc1)c1cc(O)ccc1C1CCc2cc(O)ccc2C1` (stereo not drawn) [Example 45, 6-[2-(Benzylethylamino)-4-hydroxyphenyl]-5,6,7,8-tetrahydronaphthalen-2-ol] is 8.08; for `CN(CCc1ccc(O)cc1)c1cc(O)ccc1C1CCc2cc(O)ccc2C1` (stereo not drawn) [Example 48, 6-{4-Hydroxy-2-{[2-(4-hydroxyphenyl)ethyl]methylamino}phenyl}-5,6,7,8-tetrahydronaphthalen-2-ol] it is 7.89. `CCN(Cc1ccncc1)c1cc(O)ccc1C1CCc2cc(O)ccc2C1` (stereo not drawn) [Example 54, 6-{2-[Ethyl(pyridin-4-ylmethyl)amino]-4-hydroxyphenyl}-5,6,7,8-tetrahydronaphthalen-2-ol]: the pKi was 7.49. Under `CCn1ccc2c(O)ccc(C3CCc4cc(O)ccc4C3)c21` (stereo not drawn) [Example 55, 1-Ethyl-7-(6-hydroxy-1,2,3,4-tetrahydronaphthalen-2-yl)-1H-indol-4-ol] stands 7.08. The figure for `CN(Cc1ccc(OCCN2CCCCC2)cc1)c1cc(O)ccc1-c1ccc2cc(O)ccc2c1` [Example 113, 6-{4-Hydroxy-2-{methyl[4-(2-piperidin-1-ylethoxy)benzyl]amino}phenyl}naphthalen-2-ol] is 8.80. The figure for `Oc1ccc2c(c1)CCC(c1ccc(O)cc1NCc1ccc(OCCN3CCCCC3)cc1)=C2` [Example 130, 6-{4-Hydroxy-2-[4-(2-piperidin-1-ylethoxy)benzylamino]phenyl}-7,8-dihydronaphthalen-2-ol] is 8.09; for `OCCN(Cc1ccc(OCCN2CCCCCC2)cc1)c1cc(O)ccc1C1CCc2cc(O)ccc2C1` (stereo not drawn) [Example 177, 6-{2-{[4-(2-Azepan-1-ylethoxy)benzyl](2-hydroxyethyl)amino}-4-hydroxyphenyl}-5,6,7,8-tetrahydronaphthalen-2-ol] it is 7.74. As to `Oc1ccc2c(c1)CCC(c1ccc(O)cc1N(Cc1ccc(OCCN3CCCCCC3)cc1)CC(F)(F)F)C2` (stereo not drawn) [Example 179, 6-{2-{[4-(2-Azepan-1-ylethoxy)benzyl](2,2,2-trifluoroethyl)amino}-4-hydroxyphenyl}-5,6,7,8-tetrahydronaphthalen-2-ol], the pKi was 8.05.

As for `COCCN(Cc1ccc(OCCN2CCCCC2)c(F)c1)c1cc(O)ccc1C1CCc2cc(O)ccc2C1` (stereo not drawn) [Example 183, 6-{2-{[3-Fluoro-4-(2-piperidin-1-ylethoxy)benzyl](2-methoxyethyl)amino}-4-hydroxyphenyl}-5,6,7,8-tetrahydronaphthalen-2-ol], the pKi was 7.74.

With `CCN(Cc1ccc(OCCN2CCCCCC2)cc1)c1cccc(C)c1C1CCc2cc(O)ccc2C1` (stereo not drawn) [Example 293, 6-{2-{[4-(2-Azepan-1-ylethoxy)benzyl]ethylamino}-6-methylphenyl}-5,6,7,8-tetrahydronaphthalen-2-ol], the negative-log Ki (pKi) is 7.49.

Take `CCN(Cc1ccc(OCCN2CCCCC2)c(F)c1)c1ccc(F)cc1C1CCc2cc(O)ccc2C1` (stereo not drawn) [Example 295, 6-{2-{Ethyl[3-fluoro-4-(2-piperidin-1-ylethoxy)benzyl]amino}-5-fluorophenyl}-5,6,7,8-tetrahydronaphthalen-2-ol]: the pKi is 7.77.

As for `CCN(Cc1ccc(OCCN2CCCCCC2)cc1)c1cc(O)ccc1C1CCCc2cc(O)ccc2C1` (stereo not drawn) [Example 298, 6-{2-{[4-(2-Azepan-1-ylethoxy)benzyl]ethylamino}-4-hydroxyphenyl}-6,7,8,9-tetrahydro-5H-benzocyclohepten-2-ol], the pKi was 7.89. The figure for `CC1(C)c2ccc(O)cc2CCC1c1ccc(O)cc1Nc1ccc(OCCN2CCCCC2)c(F)c1` (stereo not drawn) [Example 305, 6-{2-[3-Fluoro-4-(2-piperidin-1-ylethoxy)phenylamino]-4-hydroxyphenyl}-5,5-dimethyl-5,6,7,8-tetrahydronaphthalen-2-ol] is 8.07; for `CCN(Cc1ccc(OCCN2CCCCCC2)cc1)c1cc(O)ccc1C1=Cc2ccc(O)cc2CC1(C)C` [Example 311, 6-{2-{[4-(2-Azepan-1-ylethoxy)benzyl]ethylamino}-4-hydroxyphenyl}-7,7-dimethyl-7,8-dihydronaphthalen-2-ol] it is 8.29; for `Oc1ccc(-c2nc3ccc(O)cc3s2)c(NCc2ccc(OCCN3CCCCC3)cc2)c1` [Example 319, 2-{4-Hydroxy-2-[4-(2-piperidin-1-ylethoxy)benzylamino]phenyl}benzothiazol-6-ol] it is 8.80.

On to `CCN(Cc1ccc(OCCN2CCCCC2)c(F)c1)c1cc(O)ccc1-c1cc2ccc(O)cc2s1` [Example 322, 2-{2-{Ethyl[3-fluoro-4-(2-piperidin-1-ylethoxy)benzyl]amino}-4-hydroxyphenyl}benzo[b]thiophen-6-ol], for which the pKi was 8.51.

Take `ON=C1CCc2cc(-c3ccc(O)cc3Nc3ccc(OCCN4CCCCC4)cc3)ccc21` [Example 327, 5-{4-Hydroxy-2-[4-(2-piperidin-1-ylethoxy)phenylamino]phenyl}indan-1-one oxime]: the pKi was 7.38. The figure for `CCN(Cc1ccc(OCCN2CCCCCC2)cc1)c1cc(O)ccc1C1CCN(c2cccc(O)c2)C1` (stereo not drawn) [Example 329, 3-{[4-(2-Azepan-1-ylethoxy)benzyl]ethylamino}-4-[1-(3-hydroxyphenyl)pyrrolidin-3-yl]phenol] is 7.03; for `Oc1ccc2c(c1)CCC(c1ccc(O)cc1N1Cc3ccc(OCCN4CCCCC4)cc3C1)C2` (stereo not drawn) [Example 338, 6-{4-Hydroxy-2-[5-(2-piperidin-1-ylethoxy)-1,3-dihydroisoindol-2-yl]phenyl}-5,6,7,8-tetrahydronaphthalen-2-ol] it is 7.66. Under `CN(Cc1ccc(OCCN2CCCCC2)cc1)c1cc(O)ccc1CCc1ccc(O)cc1` [Example 343, 4-[2-(4-Hydroxyphenyl)ethyl]-3-{methyl-[4-(2-piperidin-1-ylethoxy)benzyl]amino}phenol] stands 7.51; under `Oc1ccc(/C=C/c2ccc(O)cc2NCc2ccc(OCCN3CCCCC3)c(F)c2)cc1` [Example 349, 3-[3-Fluoro-4-(2-piperidin-1-ylethoxy)benzylamino]-4-[2-(4-hydroxyphenyl)vinyl]phenol], 7.80; under `CC(C)N(CCOc1ccc(CCc2cc(O)ccc2C2CCc3cc(O)ccc3C2)cc1)C(C)C` (stereo not drawn) [Example 357, 6-{2-{2-[4-(2-Diisopropylaminoethoxy)phenyl]ethyl}-4-hydroxyphenyl}-5,6,7,8-tetrahydronaphthalen-2-ol], 8.09.
